This is an account of results in article PMC6680850, “Anion Inhibition Profile of the β-Carbonic Anhydrase from the Opportunist Pathogenic Fungus Malassezia restricta Involved in Dandruff and Seborrheic Dermatitis” (Metabolites, 2019).

The term Ki denotes the equilibrium dissociation constant of an inhibitor or competing ligand from its target.

The target of assay [1] is β-CA from Malassezia restricta (MreCA) (Malassezia restricta, UniProt A0A3G2S4B9). Nature of the assay: biochemical. The format is biochemical.
For assay [2], the target named is β-CA from Malassezia globosa (MgCA). Set-up: method as in PMID 29152053. Conditions: cited from earlier work.
In a further assay the target is hCA I. Conditions: cited from earlier work.
A further assay addresses hCA II. As to conditions: cited from earlier work; for Ki: pH 8.3.
[3] abbreviates: CO2 hydration reaction, 20 °C, pH 8.3, stopped flow, ref [31].

Structures can show the parent of a compound that is named as a salt. Where two headings read alike, the source gives them in different places.

β-CA from Malassezia restricta (MreCA), sequence (A0A3G2S4B9 1-238): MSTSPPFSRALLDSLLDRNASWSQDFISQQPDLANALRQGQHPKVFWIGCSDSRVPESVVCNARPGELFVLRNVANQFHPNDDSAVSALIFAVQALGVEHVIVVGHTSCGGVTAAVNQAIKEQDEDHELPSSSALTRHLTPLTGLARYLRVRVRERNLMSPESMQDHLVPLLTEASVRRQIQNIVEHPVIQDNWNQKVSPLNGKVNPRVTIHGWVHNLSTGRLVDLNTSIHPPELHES

Take `OB1OB2OB(O)OB(O1)O2` [B4O7^2−, tetraborate]: the Ki in assay [1] (pH 8.3, read-out: KI MreCA) was 0.4 mM; in assay [2] (pH 8.3), 8.45 mM.
`[Br-].[K+]` [Br^−, bromide]: the Ki in assay [1] (pH 8.3, read-out: KI MreCA) was > 50 mM; on hCA I (pH 8.3), 4 mM; on hCA II it was 63 mM; in assay [2] (pH 8.3), 18.6 mM.
For `O=S(=O)(O)C(F)(F)F` [CF3SO3^−, trifalate], the Ki in assay [1] (pH 8.3, read-out: KI MreCA) is 4.5 mM; in assay [2] (setting [3]) it was 2.28 mM.
On to `N#CO` [CNO^−, cyanate], for which the Ki in assay [1] (pH 8.3, read-out: KI MreCA) is > 50 mM; in assay [2] (pH 8.3), 6.81 mM.
Regarding `O=C(O)O` [CO3^2, carbonate], the Ki in assay [1] (pH 8.3, read-out: KI MreCA) is > 50 mM; in assay [2] (pH 8.3) it was > 100 mM.
On to `S=C(S)S` [CS3^2−, trithiocarbonate], for which the Ki in assay [1] (pH 8.3, read-out: KI MreCA) was 0.92 mM; at hCA I (setting [3]) it was 0.0087 mM; in assay [2] (setting [3]), 1.77 mM.
On to `[O-][Cl+3]([O-])([O-])O` [ClO4^−, perchlorate], for which the Ki in assay [1] (pH 8.3, read-out: KI MreCA) is 9.2 mM; in assay [2] (pH 8.3) it was > 100 mM.
For the compound `Cl` [Cl^−, chloride], the Ki is > 50 mM in assay [1] (pH 8.3, read-out: KI MreCA); 6 mM on hCA I (pH 8.3); 7.98 mM in assay [2] (pH 8.3).
Regarding `CCN(CC)C(=S)S` [Et2NCS2^−, diethyldithiocarbamate], the Ki in assay [1] was 0.075 mM; at hCA I (setting [3]), 0.00079 mM; in assay [2] (setting [3]), 0.3 mM.
Consider `F` [F^−, fluoride], for which the inhibition constant Ki in assay [1] (pH 8.3, read-out: KI MreCA) was > 50 mM; in assay [2] (pH 8.3), 7.13 mM.
`O=C(O)O` [HCO3^−, bicarbonate]: the Ki in assay [1] (pH 8.3, read-out: KI MreCA) was 0.86 mM; in assay [2] (pH 8.3), 0.59 mM.
Regarding `O=S(O)O` [HSO3^−, bisulfite], the Ki in assay [1] (pH 8.3, read-out: KI MreCA) was > 50 mM; on hCA I (setting [3]), 18 mM; in assay [2] (setting [3]), > 100 mM.
Turning to `I` [I^−, iodide], the Ki in assay [1] (pH 8.3, read-out: KI MreCA) is 8.6 mM; on hCA I (setting [3]), 0.3 mM; in assay [2] (setting [3]), 8.73 mM.
Consider `NS(N)(=O)=O` [Inhibitor H2NSO2NH2, sulfamide], for which the Ki in assay [1] (pH 8.3, read-out: KI MreCA) is 0.72 mM; in assay [2] (setting [3]), 0.094 mM.
With `[N-]=[N+]=[N-]` [N3^−, azide], the Ki is > 50 mM in assay [1] (pH 8.3, read-out: KI MreCA) and 45.2 mM in assay [2] (pH 8.3). For the same compound, the “inhibition of hCA II in words” value in the assay on hCA II is recorded as “well inhibited”.
In the case of `NS(=O)(=O)O` [NH2SO3H, sulfamic acid], the Ki in assay [1] (pH 8.3, read-out: KI MreCA) was 7.7 mM; at hCA I (setting [3]) it was 0.021 mM; in assay [2] (setting [3]) it was 0.083 mM.
For the compound `O=S(=O)(O)NS(=O)(=O)O` [NH(SO3)2^2−, iminodisulfite], the Ki in assay [1] (pH 8.3, read-out: KI MreCA) was > 50 mM; at hCA I (setting [3]) it was 0.31 mM; in assay [2] (setting [3]) it was 21.4 mM.
In the case of `O=NO` [NO2^−, nitrite], the Ki in assay [1] (pH 8.3, read-out: KI MreCA) was > 50 mM; in assay [2] (pH 8.3), 7.56 mM.
As to `O=[N+]([O-])O` [NO3^−, nitrate], the Ki is 9 mM in assay [1] (pH 8.3, read-out: KI MreCA); 7 mM at hCA I (setting [3]); 8.13 mM in assay [2] (setting [3]).
In the case of `O=P(O)(O)OP(=O)(O)O` [P2O7^2−, pyrophosphate], the Ki in assay [1] (pH 8.3, read-out: KI MreCA) was > 50 mM; at hCA I (setting [3]) it was 25.8 mM; in assay [2] (setting [3]), 6.03 mM.
As for `F[P-](F)(F)(F)(F)F` [PF6^−, esafluorofosfato], the Ki in assay [1] (pH 8.3, read-out: KI MreCA) was 3.9 mM; in assay [2] (setting [3]), 6.47 mM.
In the case of `O=[As](O)(O)c1ccccc1` [PhAsO3H2, phenylarsonic acid], the Ki was 31.7 mM at hCA I (pH 8.3), 49.2 mM on hCA II and 0.09 mM in assay [2] (pH 8.3).
For the compound `OB(O)c1ccccc1` [PhB(OH)2, phenylboronic acid], the Ki in assay [1] is 8.7 mM; on hCA I (pH 8.3) it was 58.6 mM; in assay [2] (pH 8.3), 0.089 mM. In the assay on hCA I, the “inhibition of hCA I in words” value is “not well inhibited”.
Regarding `[O]=[Re](=[O])(=[O])[OH]` [ReO4^−, perrhenate], the inhibition constant Ki is > 50 mM in assay [1] (pH 8.3, read-out: KI MreCA) and 16.7 mM in assay [2] (setting [3]).
On to `[O]=[Ru](=[O])(=[O])=[O]` [RuO4^−, perruthenate], for which the Ki in assay [1] (pH 8.3, read-out: KI MreCA) was 7.4 mM; in assay [2] (setting [3]), 8.82 mM.
For `O=S(=O)(O)OOS(=O)(=O)O` [S2O8^2−, peroxydisulfate], the Ki is > 50 mM in assay [1] (pH 8.3, read-out: KI MreCA) and > 100 mM in assay [2] (setting [3]).
Consider `N#CS` [SCN^−, thiocyanate], for which the Ki is > 50 mM in assay [1] (pH 8.3, read-out: KI MreCA) and 8.39 mM in assay [2] (pH 8.3).
Regarding `O=S(=O)(O)O` [SO4^2−, sulfate], the Ki in assay [2] (pH 8.3) was 19.5 mM.
Consider `N#C[SeH]` [SeCN^−, selenocyanate], for which the Ki was 0.65 mM in assay [1] (pH 8.3, read-out: KI MreCA); 0.085 mM at hCA I (pH 8.3); 1.73 mM in assay [2] (pH 8.3).
For the compound `O=[Se](=O)(O)O` [SeO4^2−], the Ki was 1.7 mM in assay [1] (pH 8.3, read-out: KI MreCA) and 7.41 mM in assay [2] (pH 8.3).
With `[O]=[Sn]([OH])[OH]` [SnO3^2−, stannate], the Ki is 0.56 mM in assay [1] (pH 8.3, read-out: KI MreCA) and 5.07 mM in assay [2] (pH 8.3).
On to `O=[Te](=O)(O)O` [TeO4^2−, tellurate], for which the Ki was 0.56 mM in assay [1] (pH 8.3, read-out: KI MreCA); 0.66 mM on hCA I (pH 8.3); 5.75 mM in assay [2] (pH 8.3).
As for `[O]=[V]([OH])([OH])[O][V](=[O])([OH])[OH]` [V2O7^2−, divanadate], the inhibition constant Ki in assay [1] (pH 8.3, read-out: KI MreCA) was > 50 mM; at hCA I (setting [3]), 0.54 mM; in assay [2] (setting [3]), 6.89 mM.
In the case of osmate [OsO5^2−], the Ki in assay [1] (pH 8.3, read-out: KI MreCA) is 8.5 mM; in assay [2] (pH 8.3), 6.16 mM.
